Source: patent US10246429B2, “Vinyl fluoride cyclopropyl fused thiazin-2-amine compounds as beta-secretase inhibitors and methods of use” (AMGEN INC., priority 2015, dated 2019)

Tests used:
BACE2 = BACE2 (Homo sapiens (Human), UniProt Q9Y5Z0); experiment: In vitro enzymatic BACE2 FRET assay; type: biochemical; settings: read-out: IC50 IP (μM) BACE2 Enzyme
Excerpt: (§1) In Vitro Enzymatic BACE1 and BACE2 FRET (Fluorescence Resonance Energy Transfer) Assays (Enzyme Assay Data in Table 1)

BACE1 [1] = target: T1, BACE1 (Homo sapiens (Human), UniProt P56817); experiment: BACE1 cell assay; type: cell-based
Target sequence in this assay (P56817 46-501, species assumed): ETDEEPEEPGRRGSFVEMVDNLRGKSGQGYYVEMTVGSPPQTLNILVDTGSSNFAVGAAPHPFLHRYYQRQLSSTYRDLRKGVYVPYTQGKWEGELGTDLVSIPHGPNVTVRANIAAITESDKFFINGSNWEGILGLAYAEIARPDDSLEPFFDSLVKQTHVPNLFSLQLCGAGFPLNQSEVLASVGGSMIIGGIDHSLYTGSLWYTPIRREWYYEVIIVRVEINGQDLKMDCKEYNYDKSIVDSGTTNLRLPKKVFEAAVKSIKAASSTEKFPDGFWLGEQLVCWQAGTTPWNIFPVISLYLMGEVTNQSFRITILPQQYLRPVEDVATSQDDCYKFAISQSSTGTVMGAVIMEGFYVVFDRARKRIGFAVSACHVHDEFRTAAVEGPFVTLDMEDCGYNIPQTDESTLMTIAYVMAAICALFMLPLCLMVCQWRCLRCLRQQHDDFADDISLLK

Cathepsin D (CatD) = Cathepsin D (CatD) (Homo sapiens (Human), UniProt P07339); experiment: CatD assay; type: biochemical; settings: read-out: IC50 IP (μM) CatD
Chain of Cathepsin D (CatD) (P07339 65-412, species assumed): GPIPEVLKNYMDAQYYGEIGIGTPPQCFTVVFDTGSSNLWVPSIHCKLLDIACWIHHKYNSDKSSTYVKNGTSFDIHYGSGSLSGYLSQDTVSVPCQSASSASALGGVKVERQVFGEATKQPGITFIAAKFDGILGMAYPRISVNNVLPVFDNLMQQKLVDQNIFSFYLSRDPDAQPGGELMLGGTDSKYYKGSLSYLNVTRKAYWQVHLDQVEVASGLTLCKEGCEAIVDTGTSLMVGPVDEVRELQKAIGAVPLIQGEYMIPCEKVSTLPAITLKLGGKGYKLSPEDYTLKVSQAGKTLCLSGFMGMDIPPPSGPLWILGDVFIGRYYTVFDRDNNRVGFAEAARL

BACE1 [2] = target: T1, BACE1; experiment: In vitro enzymatic BACE1 FRET assay; type: biochemical; settings: read-out: IC50 IP (μM) BACE1 Enzyme
Target sequence in this assay (P56817 46-501): as the sequence (P56817 46-501, species assumed) above
Excerpt: as §1

[3] = read-out: IC50 IP (μM) BACE1 Cell

Chain of BACE2 (Q9Y5Z0 63-518): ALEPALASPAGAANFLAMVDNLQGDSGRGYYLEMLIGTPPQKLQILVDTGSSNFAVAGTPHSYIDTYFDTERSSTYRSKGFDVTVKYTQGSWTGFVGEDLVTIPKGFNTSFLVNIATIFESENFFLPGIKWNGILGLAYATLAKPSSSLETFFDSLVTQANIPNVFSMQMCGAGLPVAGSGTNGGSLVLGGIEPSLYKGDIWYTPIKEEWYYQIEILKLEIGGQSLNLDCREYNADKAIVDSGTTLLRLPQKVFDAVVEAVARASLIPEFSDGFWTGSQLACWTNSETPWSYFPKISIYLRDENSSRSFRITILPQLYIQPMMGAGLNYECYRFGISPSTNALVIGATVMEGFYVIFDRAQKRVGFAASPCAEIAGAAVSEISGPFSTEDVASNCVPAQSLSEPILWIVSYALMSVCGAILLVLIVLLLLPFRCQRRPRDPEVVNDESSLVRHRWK

Row | SMILES | IC50 (BACE2) [µM] | IC50 (BACE1 [1]; [3]) [µM] | IC50 (Cathepsin D (CatD)) [µM] | IC50 (BACE1 [2]) [µM] | IC50 (BACE1 [1]) [µM]
1 | C#C[C@H](C)Oc1cnc(/C(F)=C/c2ccc(F)c([C@@]3(C)N=C(N)S[C@@]4(COC)C[C@H]43)c2)cn1 [Example 264] | 0.917 | 0.026 | 363 | 0.003 | 
2 | COC[C@]12C[C@H]1[C@@](C)(c1cc(/C=C(\F)c3cnc(OCC(F)F)cn3)ccc1F)N=C(N)S2 [Example 266] | 1.58 | 1.51 | 409 | 0.591 | 
3 | COC[C@]12C[C@H]1[C@@](C)(c1cc(/C=C(\F)c3cnc(OCC(F)(F)F)cn3)ccc1F)N=C(N)S2 [Example 267] | 1.73 | 0.559 | 209 | 0.112 | 
4 | COC[C@]12C[C@H]1[C@@](C)(c1cc(/C=C(\F)c3cnc(OCCF)cn3)ccc1F)N=C(N)S2 [Example 269] | 1.14 | 1.66 | 329 | 0.839 | 
5 | COC[C@]12C[C@H]1[C@@](C)(c1cc(/C=C(\F)c3cnc(OCC4CC4)cn3)ccc1F)N=C(N)S2 [Example 270] | 1.22 | 5.12 | 211 | 0.659 | 
6 | COC[C@]12C[C@H]1[C@@](C)(c1cc(/C=C(\F)c3cnc(OCC4COC4)cn3)ccc1F)N=C(N)S2 [Example 272] | 4.02 | 2.53 | 864 | 3.04 | 
7 | COC[C@]12C[C@H]1[C@@](C)(c1cc(/C=C(\F)c3cnc(OCC(C)C)cn3)ccc1F)N=C(N)S2 [Example 274] | 2.19 | 4.26 | 181 | 1.9 | 
8 | COC[C@]12C[C@H]1[C@@](C)(c1cc(/C=C(\F)c3cnc(OCc4cc(C)on4)cn3)ccc1F)N=C(N)S2 [Example 275] | 1.2 | 2 | 144 | 0.248 | 
9 | C#CCOc1cnc(/C(F)=C/c2ccc(F)c([C@@]3(C)N=C(N)S[C@@]4(C(=O)N5[C@H]6COC[C@@H]5COC6)C[C@H]43)c2)cn1 [Example 279, ((1S,5S,6S)-3-amino-5-(2-fluoro-5-((Z)-2-fluoro-2-(5-(prop-2-yn-1-yloxy)pyrazin-2-yl)vinyl)phenyl)-5-methyl-2-thia-4-azabicyclo[4.1.0]hept-3-en-1-yl)((1R,5R)-3,7-dioxa-9-azabicyclo[3.3.1]nonan-9-yl)methanone] | 0.176 | 0.001 | 42 | 0.0012 | 
10 | C#CCOc1cnc(/C(F)=C/c2cnc(F)c([C@@]3(C)N=C(N)S[C@@]4(C(=O)N5CC[C@H](F)C5)C[C@H]43)c2)cn1 [Example 280, ((1S,5S,6S)-3-amino-5-(2-fluoro-5-((Z)-2-fluoro-2-(5-(prop-2-yn-1-yloxy)pyrazin-2-yl)vinyl)pyridin-3-yl)-5-methyl-2-thia-4-azabicyclo[4.1.0]hept-3-en-1-yl)((S)-3-fluoropyrrolidin-1-yl)methanone] | 0.119 | 0.0016 | 115 | 0.0013 | 
11 | C[C@]1(c2cc(/C=C(\F)c3ccc(C#N)cn3)cnc2F)N=C(N)S[C@@]2(C(=O)NCC(F)F)C[C@H]21 [Example 281, (1S,5S,6S)-3-amino-5-(5-((Z)-2-(5-cyanopyridin-2-yl)-2-fluorovinyl)-2-fluoropyridin-3-yl)-N-(2,2-difluoroethyl)-5-methyl-2-thia-4-azabicyclo[4.1.0]hept-3-ene-1-carboxamide] | 0.164 |  | 269 | 0.0214 | 0.0542
12 | C#CCOc1cnc(/C(F)=C/c2cnc(F)c([C@@]3(C)N=C(N)S[C@@]4(C(=O)N(C)C)C[C@H]43)c2)cn1 [Example 287, (1S,5S,6S)-3-amino-5-(2-fluoro-5-((Z)-2-fluoro-2-(5-(prop-2-yn-1-yloxy)pyrazin-2-yl)vinyl)pyridin-3-yl)-N,N,5-trimethyl-2-thia-4-azabicyclo[4.1.0]hept-3-ene-1-carboxamide] | 0.04 | 0.0022 | 206 | 0.0019 | 
13 | CC#CCOc1cnc(/C(F)=C/c2cnc(F)c([C@@]3(C)N=C(N)S[C@@]4(C(=O)N(C)C)C[C@H]43)c2)cn1 [Example 289, (1S,5S,6S)-3-amino-5-(5-((Z)-2-(5-(but-2-yn-1-yloxy)pyrazin-2-yl)-2-fluorovinyl)-2-fluoropyridin-3-yl)-N,N,5-trimethyl-2-thia-4-azabicyclo[4.1.0]hept-3-ene-1-carboxamide] | 0.022 | 0.002 | 227 | 0.0008 | 
14 | CN(C)C(=O)[C@]12C[C@H]1[C@@](C)(c1cc(/C=C(\F)c3cnc(OCC(F)(F)C(F)F)cn3)cnc1F)N=C(N)S2 [Example 291, (1S,5S,6S)-3-amino-5-(2-fluoro-5-((Z)-2-fluoro-2-(5-(2,2,3,3-tetrafluoropropoxy)pyrazin-2-yl)vinyl)pyridin-3-yl)-N,N,5-trimethyl-2-thia-4-azabicyclo[4.1.0]hept-3-ene-1-carboxamide] | 0.106 |  | 290 | 0.0406 | 0.326
15 | C#CCOc1cnc(/C(F)=C/c2cnc(F)c([C@@]3(C)N=C(N)S[C@@]4(C(=O)OC)C[C@H]43)c2)cn1 [Example 294, (1S,5S,6S)-methyl 3-amino-5-(2-fluoro-5-((Z)-2-fluoro-2-(5-(prop-2-yn-1-yloxy)pyrazin-2-yl)vinyl)pyridin-3-yl)-5-methyl-2-thia-4-azabicyclo[4.1.0]hept-3-ene-1-carboxylate methanone] | 2.76 | 0.0949 | 400 | 0.0089 | 
16 | C#CCOc1cnc(/C(F)=C/c2cnc(F)c([C@@]3(C)N=C(N)S[C@@]4(C(=O)N5CC[C@@H](F)C5)C[C@H]43)c2)cn1 [Example 295, ((1S,5S,6S)-3-amino-5-(2-fluoro-5-((Z)-2-fluoro-2-(5-(prop-2-yn-1-yloxy)pyrazin-2-yl)vinyl)pyridin-3-yl)-5-methyl-2-thia-4-azabicyclo[4.1.0]hept-3-en-1-yl)((R)-3-fluoropyrrolidin-1-yl)methanone] | 0.078 | 0.0004 | 58.6 | 0.0008 | 
17 | CN(C)C(=O)[C@]12C[C@H]1[C@@](C)(c1cc(/C=C(\F)c3cnc(C#N)cn3)cnc1F)N=C(N)S2 [Example 296, (1S,5S,6S)-3-amino-5-(5-((Z)-2-(5-cyanopyrazin-2-yl)-2-fluorovinyl)-2-fluoropyridin-3-yl)-N,N,5-trimethyl-2-thia-4-azabicyclo[4.1.0]hept-3-ene-1-carboxamide] | 0.037 |  | 290 | 0.0119 | 0.0435
18 | C#CCOc1cnc(/C(F)=C/c2cnc(F)c([C@@]3(C)N=C(N)S[C@@]4(C(=O)NCC(F)F)C[C@H]43)c2)cn1 [Example 300, (1S,5S,6S)-3-amino-N-(2,2-difluoroethyl)-5-(2-fluoro-5-((Z)-2-fluoro-2-(5-(prop-2-yn-1-yloxy)pyrazin-2-yl)vinyl)pyridin-3-yl)-5-methyl-2-thia-4-azabicyclo[4.1.0]hept-3-ene-1-carboxamide] | 0.411 |  | 20 | 0.0025 | 0.0066
19 | C[C@H]1[C@@H](F)CCN1C(=O)[C@]12C[C@H]1[C@@](C)(c1cc(/C=C(\F)c3ccc(C#N)cn3)ccc1F)N=C(N)S2 [Example 306, 6-((Z)-2-(3-((1S,5S,6S)-3-amino-1-((2S,3S)-3-fluoro-2-methylpyrrolidine-1-carbonyl)-5-methyl-2-thia-4-azabicyclo[4.1.0]hept-3-en-5-yl)-4-fluorophenyl)-1-fluorovinyl)nicotinonitrile] | 0.111 | 0.001 | 16.2 | 0.002 | 
20 | C[C@]1(c2cc(/C=C(\F)c3ccc(C#N)cn3)ccc2F)N=C(N)S[C@@]2(C(=O)N3CCOC4(COC4)C3)C[C@H]21 [Example 308, 6-((Z)-2-(3-((1S,5S,6S)-3-amino-5-methyl-1-(2,5-dioxa-8-azaspiro[3.5]nonane-8-carbonyl)-2-thia-4-azabicyclo[4.1.0]hept-3-en-5-yl)-4-fluorophenyl)-1-fluorovinyl)nicotinonitrile] | 0.013 | 0.001 | 296 | 0.0021 | 
21 | C[C@@H]1COC[C@H](C)N1C(=O)[C@]12C[C@H]1[C@@](C)(c1cc(/C=C(\F)c3ccc(C#N)cn3)ccc1F)N=C(N)S2 [Example 313, 6-((Z)-2-(3-((1S,5S,6S)-3-amino-1-((3S,5R)-3,5-dimethylmorpholine-4-carbonyl)-5-methyl-2-thia-4-azabicyclo[4.1.0]hept-3-en-5-yl)-4-fluorophenyl)-1-fluorovinyl)nicotinonitrile] | 0.147 | 0.0022 | 257 | 0.0019 | 
22 | C[C@@H]1COC[C@@H](C)N1C(=O)[C@]12C[C@H]1[C@@](C)(c1cc(/C=C(\F)c3ccc(C#N)cn3)ccc1F)N=C(N)S2 [Example 314, 6-((Z)-2-(3-((1S,5S,6S)-3-amino-1-((3R,5R)-3,5-dimethylmorpholine-4-carbonyl)-5-methyl-2-thia-4-azabicyclo[4.1.0]hept-3-en-5-yl)-4-fluorophenyl)-1-fluorovinyl)nicotinonitrile] | 0.24 | 0.0067 | 447 | 0.0047 | 
23 | C[C@]1(c2cc(/C=C(\F)c3ccc(C#N)cn3)ccc2F)N=C(N)S[C@@]2(C(=O)N3C4CCC3COC4)C[C@H]21 [Example 315, 6-((Z)-2-(3-((1S,5S,6S)-3-amino-1-(3-oxa-8-azabicyclo[3.2.1]octane-8-carbonyl)-5-methyl-2-thia-4-azabicyclo[4.1.0]hept-3-en-5-yl)-4-fluorophenyl)-1-fluorovinyl)nicotinonitrile] | 0.071 |  | 390 | 0.0016 | 0.0013
